# Patent publication US20040102360A1, “Combination therapy” (priority 2002, published 2004)
# Legend:
# MDA-MB468 cells = assay: Caspase 3 activation apoptosis assay in MDA-MB468 cells; type: cell-based, human; settings: FIG. 6 (a)
# Protocol: (§1) The herein disclosed inhibitors were evaluated as to the ability to increase cell death. Inhibitors of Akt and inhibitors of Akt and a protein kinase were assessed alone and in combination to determine the effect on caspase 3 activation.
# (§2) Apoptosis Assay: Caspase 3 Activation
# (§3) Cells were seeded in 96 well plates at concentrations ranging from 2×10^3 to 1×10^4 cells per well in their respective growth media. For anchorage independent assays (spheroids) cells were plated in 96 well plates that had been coated with poly-heme(poly 2-hydroxyethylmethacrylate [Sigma] 10 mg/ml in 95% ethanol). 72 hours later caspase 3 assays were set up as follows:
# (§4) a. For standard combination assays, compounds were added at respective concentrations indicated and plates incubated at 37° C. in a CO2 incubator for 18 hours. For standard combination assays utilizing treatment with camptothecin, compounds and camptothecin were added at the same time at the respective concentrations indicated.
# (§5) b. For combinations involving addition of the death receptor ligand TRAIL/Apo2L (Research Diagnostics) compounds were added for 1.5 hours prior to addition of TRAIL and plates incubated an additional 3 to 4 hours post TRAIL addition. In the case of the time course, plates were incubated for 2, 3, 4, 5, 6 and 7 hrs with Trail ligand before ending the assay. […]
# Akt1, Akt2 and Akt3 = assay: Akt kinase assays (HTRF, GSK-derived biotinylated peptide substrate); type: biochemical, human; settings: as characterised in the figure legends
# Protocol: Activated AKT isoforms and pleckstrin homology domain deletion constructs were assayed utilizing a GSK-derived biotinylated peptide substrate. The extent of peptide phosphorylation was determined by Homogeneous Time Resolved Fluorescence (HTRF) using a lanthamide chelate (Lance)-coupled monoclonal antibody specific for the phosphopeptide in combination with a streptavidin-linked allophycocyanin (SA-APC) fluorophore which will bind to the biotin moiety on the peptide. When the Lance and APC are in proximity (i.e. bound to the same phosphopeptide molecule), a non-radiative energy transfer takes place from the Lance to the APC, followed by emission of light from APC at 665 nm.
# The reaction is assembled by adding 16 TL of the ATP/MgCl2 working solution to the appropriate wells of a 96-well microtiter plate. Inhibitor or vehicle (1.0 Tl) is added followed by 10 Tl of peptide working solution. The reaction is started by adding 13 Tl of the enzyme working solution and mixing. The reaction is allowed to proceed for 50 min and then stopped by the addition of 60 Tl HTRF quench buffer. The stopped reactions were incubated at room temperature for at least 30 min and then read on the Discovery instrument.
# LnCaP/Akt3 cell line = assay: Caspase 3 activation apoptosis assay in LnCaP/Akt3 cells; type: cell-based, human; settings: FIG. 4 (b)
# Protocol: as §1, §2, §3, §4, §5
# LnCaP cells = assay: Caspase 3 activation apoptosis assay in LnCaP cells; type: cell-based, human
# Protocol: as §1, §2, §3, §4, §5
# MCF7 cells = assay: Caspase 3 activation apoptosis assay in MCF7 cells; type: cell-based, human; settings: co-treatment with Camptothecin, FIG. 3
# Protocol: as §1, §2, §3, §4, §5
Structure (SMILES),Caspase 3 activity in the presence of Trail (MDA-MB468 cells),"Akt isoform selectivity (Akt1, Akt2 and Akt3)",Caspase 3 activity in the presence of Trail (LnCaP/Akt3 cell line),Caspase 3 activity in the presence of Trail (LnCaP cells; FIG. 4 (a)),fold increase in Caspase 3 activation over Camptothecin alone (MCF7 cells) [fold],"fold increase in Caspase 3 activation over Trail alone (LnCaP cells; + TRAIL ligand, FIG. 1) [fold]"
"CN(C)CC(C)(C)CNc1nn2c(-c3ccccc3)nnc2cc1C1CCC1 [Compound 1, N′-(7-Cyclobutyl-3-phenyl-[1,2,4]triazolo[4,3-b]pyridazin-6-yl)-2,2,N,N-tetramethyl-propane-1,3-diamine]",increase in Caspase 3 activity,selective Akt1 inhibitor,increase in Caspase 3 activity,increase in Caspase 3 activity,–,–
"O=c1[nH]c2ccccc2n1C1CCN(Cc2ccc(-c3nc4cc5nc[nH]c5cc4nc3-c3ccccc3)cc2)CC1 [Compound 12-5, 1-{1-[4-(7-Phenyl-1H-imidazo[4,5-g]quinoxalin-6-yl)benzyl]piperidin-4-yl}-1,3-dihydro-2H-benzimidazol-2-one]",–,selective Akt1 and Akt2 inhibitor,–,–,5.8,–
NC(=O)c1[nH]c2ccc(Br)cc2c1S(=O)(=O)N1CCOCC1 [Compound A],–,–,–,–,8.7,1.2
